# In patent US12486218B2, “Compounds advantageous in the treatment of central nervous system diseases and disorders” (AurimMed Pharma, Inc., priority 2008, dated 2025):
# What was measured:
# kainate (KA) receptors = experiment: Electrophysiology, kainate receptor currents; assay type: cell-based; conditions: at 100 μM, holding potential −70 mV
# Description: (§1) The mechanisms of action of many currently marketed anticonvulsant drugs are not fully understood. Although numerous molecular targets exist wherein anticonvulsants may exert an effect, the final common pathway appears to be through modulation of voltage-gated and/or neurotransmitter-gated ion channels. Thus, the common link among the various proposed mechanisms involves the ability of an anticonvulsant to modulate ion channel function. Presently, a number of prototype anticonvulsants are thought to exert their action (at least in part) by reducing sustained, high-frequency repetitive firing of action potentials by modulating voltage-dependent sodium (Na+) channels. The effect of promising candidate substances on voltage-gated Na+ channels can be assessed using state-of-the-art electrophysiological techniques.
# rats [1] = experiment: Lamotrigine-resistant amygdala-kindled rat model (LRM); assay type: in vivo
# Description: Resistance to Lamotrigine can be induced in rats by treating them with the drug during the kindling acquisition phase (i.e., during kindling development in the epileptogenesis phase). Subsequently, the fully kindled Lamotrigine-refractory rats (i.e., now fully manifesting seizures) are also resistant (cross-tolerant) to carbamazepine, phenytoin, and topiramate, but not to valproate (or diazepam or the clinical Phase III drug candidate, retigabine).
# The Lamotrigine-resistant amygdala-kindled rat model (LRM) may thus serve as an early model of drug-resistant (i.e., pharmacoresistant, refractory) epilepsy to identify novel AEDs for further evaluation in more extensive model systems, including the phenytoin-resistant kindled rat
# The LRM thus serves to identify novel broad-spectrum AEDs which may be effective in the treatment of drug-resistant epilepsies. Up to 35% of epilepsy patients continue to suffer from uncontrolled seizures because of their drug-resistant epilepsies.
# rats [2] = experiment: Gender Neutral test (kindled rats); assay type: in vivo
# sodium channels = experiment: Electrophysiology, sodium currents; assay type: cell-based; conditions: at 100 μM, ±S.E.M., 8 cells
# Description: as §1
# The effects of compound H (at a concentration of 100 μM) on sodium currents were evaluated in electrophysiological studies at holding potentials of −60 and −90 mV (using 8 cells). […] By way of comparison, the % of control inhibited for typical sodium-channel-blocking drugs such as phenytoin or lamotrigine is about 50%. […]
# CYP-450 2C9 = CYP-450 2C9 (Homo sapiens, UniProt P11712); experiment: In vitro human CYP-450 study, 2C9; assay type: in vitro ADME; conditions: human enzyme
# Description: (§2) On the other hand, it is an inhibitor for 2C19, 2D6, 2A6 and 2C9.
# C3A hepatocyte cells = experiment: ACTIVTox LDH release assay; assay type: cell-based
# Protocol: Compounds A, I, H, and F were tested by Stem Cell Innovations, Inc. (Houston, TX) in their ACTIVTox® Human Liver Cell-based assays (using C3A hepatocyte cells). Specifically, the compounds were tested in the LDH release assay, which determines the release of Lactate DeHydrogenase (an indicator of cell death) at various concentrations of test compound.
# A concentration of 100 µM of test compound is a much higher level of exposure to liver cells than would ever be expected under physiological conditions. Therefore, using 100 μM as a standard test concentration (for comparative purposes), the ratio of the absorbance (which measures the level of LDH release) resulting from the presence of the test compound versus the negative control is a value known as the “average (or mean) fold control” (Average Fold Control=Average of Absorbance/Average of Negative Control).
# CYP-450 2B6 = CYP-450 2B6 (Homo sapiens, UniProt P20813); experiment: In vitro human CYP-450 study, 2B6; assay type: in vitro ADME; conditions: human enzyme
# Description: as §2
# mice = experiment: MPTP-induced Parkinson's disease model in mice, behavioral assays; assay type: in vivo, C57/B16 male mice
# Protocol: In FIG. 27A-27C, Data are Illustrated Showing the Effect of Oral Treatment of mice for two weeks with compound BX in an MPTP-induced Parkinson's disease model. MPTP (1-methyl-4-phenyl-1,2,3,6-tetrahydropyridine) is a neurotoxin precursor to MPP+, which causes permanent symptoms of Parkinson's disease by destroying dopaminergic neurons in the substantia nigra of the brain. It has been used to study disease models in various animal studies.
# In the study, 9 month-old C57/B16 male mice were treated for 7 days of MPTP injection at a rate of 25 mg/kg dose: once a day. Mice in the treatment group were subsequently treated with 14 days of gavage with compound BX at a rate of 50 μg/gram dose: once a day. Treatment was followed with 5 days of behavioral assays
# Mice were scored on the number of legs slips per crossing.
# Mice tend to groom more often when they are healthy and feeling content.
# [3] = test system: mRNA levels of potential targets; experiment: PCR array using real-time PCR (mRNA levels); conditions: mRNA level
# Description: Tables 11 and 12 illustrate PCR array data using real-time PCR to track mRNA levels for various potential targets of compound BX.
# rats [4] = experiment: Water maze, spatial memory and learning in lithium-pilocarpine treated rats; assay type: in vivo; conditions: pilocarpine-induced SE rats
# Protocol: To assess spatial memory and learning in lithium-pilocarpine treated animals and to identify novel compounds that might ameliorate cognitive deficits and neuronal loss, rats were tested for their ability to navigate a water maze and find a submerged escape platform based only on their ability to remember and assess only extra maze visual cues. Learning can be assessed by quantifying the time that an animal takes to find the platform (latency) over a number of independent trials. Further, this model is sensitive to the hippocampal damage associated with pilocarpine-induced status epilepticus (SE).
# Chain of CYP-450 2C9 (P11712 whole entry): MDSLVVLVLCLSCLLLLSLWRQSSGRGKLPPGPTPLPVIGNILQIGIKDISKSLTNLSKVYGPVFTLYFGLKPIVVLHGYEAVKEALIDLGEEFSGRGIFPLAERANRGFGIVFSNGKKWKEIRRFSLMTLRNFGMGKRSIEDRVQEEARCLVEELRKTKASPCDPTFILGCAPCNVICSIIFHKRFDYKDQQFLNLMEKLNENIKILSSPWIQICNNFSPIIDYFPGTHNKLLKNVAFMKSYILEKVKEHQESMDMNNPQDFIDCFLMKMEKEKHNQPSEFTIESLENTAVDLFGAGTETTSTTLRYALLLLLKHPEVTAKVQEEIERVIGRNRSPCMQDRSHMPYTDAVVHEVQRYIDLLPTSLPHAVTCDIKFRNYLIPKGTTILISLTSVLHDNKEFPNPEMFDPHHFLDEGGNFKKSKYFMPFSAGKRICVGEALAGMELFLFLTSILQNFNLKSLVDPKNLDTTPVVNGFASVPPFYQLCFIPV
# Chain of CYP-450 2B6 (P20813 whole entry): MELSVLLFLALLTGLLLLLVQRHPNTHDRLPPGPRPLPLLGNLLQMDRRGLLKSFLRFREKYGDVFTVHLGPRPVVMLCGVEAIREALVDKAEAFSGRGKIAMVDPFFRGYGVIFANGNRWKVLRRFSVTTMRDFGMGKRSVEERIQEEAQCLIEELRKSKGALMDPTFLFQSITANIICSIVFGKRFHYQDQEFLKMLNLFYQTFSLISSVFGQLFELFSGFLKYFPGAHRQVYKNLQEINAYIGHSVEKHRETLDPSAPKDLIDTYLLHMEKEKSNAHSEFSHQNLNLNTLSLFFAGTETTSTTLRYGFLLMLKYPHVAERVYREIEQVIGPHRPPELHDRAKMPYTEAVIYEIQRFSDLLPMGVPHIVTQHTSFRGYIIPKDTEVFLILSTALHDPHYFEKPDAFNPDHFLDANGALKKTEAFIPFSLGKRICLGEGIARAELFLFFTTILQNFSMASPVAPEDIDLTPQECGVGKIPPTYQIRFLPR
smiles,measurement,setting,value
"CC(CC(N)=O)c1ccc(OC(F)(F)F)cc1 (racemic) [Compound H, 3-[4-(trifluoromethoxy)-phenyl]butyramide]",kainate (KA) receptor response,kainate (KA) receptors,99±1 % of control
same,activity in the LRM,rats [1],active
same,efficacy in the two genders,rats [2],equally efficacious in both genders
same,sodium currents,sodium channels; holding potential −60 mV,91±1 % of control
same,sodium currents,sodium channels; holding potential −90 mV,98±1 % of control
same,inhibition of CYP-450 2C9,CYP-450 2C9,inhibitor
same,"LDH release, mean fold control","C3A hepatocyte cells; at 100 μM, C3A hepatocyte cells, value below 1.75 = no cyto- or hepatotoxic activity",1.32
same,"cyto- or hepatotoxicity, ACTIVTox data","C3A hepatocyte cells; at physiologically relevant concentrations (i.e., <100 µM)",not cyto- or hepatotoxic
same,inhibition of CYP-450 2B6,CYP-450 2B6,either no or only a remote possibility of inhibiting
"C[C@H](CC(N)=O)c1ccc(OC(F)(F)F)cc1 (single isomer, unassigned) [Compound BX, R-(−)-3-(4-Trifluoromethoxy-phenyl)butyramide]","hindlimb clasping test, abnormal involuntary movement",mice; gavage 50 μg/gram once a day for 14 days,reduced MPTP-induced abnormal involuntary movement
same,"coat grooming test, grooming behavior",mice; oral treatment for two weeks,significantly improved the grooming behavior
same,"crossbeam test, motor coordination / leg slips",mice; oral treatment for two weeks,significantly improved the motor coordination and reduced the number of leg slips
same,"Fold increase, Als2 (Amyotrophic lateral sclerosis 2 homolog)",[3],109.36
same,"Fold increase, Atp2b2 (ATPase, Ca++ transporting, plasma membrane 2)",[3],−5.85
same,"Fold increase, Bdnf (Brain-derived neurotrophic factor)",[3],2.58
same,"Fold increase, Cat (Catalase)",[3],82.03
same,"Fold increase, Gclc (Glutamate-cysteine ligase, catalytic subunit)",[3],5.79
same,"Fold increase, Htr2a (5-HT (serotonin) receptor 2A)",[3],−3.11
same,"Fold increase, Ldha (Lactate dehydrogenase A)",[3],−9.66
same,"Fold increase, Ntrk2 (Neurotrophic tyrosine kinase, receptor, type 2)",[3],−2.07
same,"Fold increase, P62630 (Aldehyde oxidase 1)",[3],2.1
same,"Fold increase, Prdx2 (Peroxiredoxin 2)",[3],9.66
same,"Fold increase, Psmb5 (Proteasome subunit, beta type 5)",[3],3.02
same,"Fold increase, Slc6a3 (Solute carrier family 6 (DAT), member 3)",[3],−5.59
same,"Fold increase, Snca (Alpha-Synuclein)",[3],−2.14
same,"Fold increase, Syngr3 (Synaptogyrin 3)",[3],2.25
same,"Fold increase, Syt1 (Synaptotagmin I)",[3],2.19
same,"Fold increase, Ubb (Ubiquitin B)",[3],3.23
same,"Fold increase, Ube2k (Ubiquitin-conjugating enzyme E2K)",[3],2.98
same,spatial learning and memory in the water maze task,rats [4],preserved spatial learning and memory
same,water maze learning curve in terms of latency,rats [4],much faster learning curve
